Key:
[1] = tested on: NQO1; experiment: Induction of NQO1 in Hepa1c1c7 murine hepatoma cells; format: cell-based; settings: Mus musculus, Hepa-1c1c7; Hepa1c1c7 cells, 48 h treatment; read-out: NQO1 CD (concentration required to double the specific enzyme activity of NQO1)
Text: In this assay, the concentration required to double (CD value) the specific enzyme activity of NQO1 is used to quantify inducer potency. […] Dinkova-KOstova, A. T. et al. 2012). […] These compounds may be more robust inducers than monocyclic compounds. [table]

[2] = tested on: iNOS
[3] = tested on: NQO1; settings: Hepa1c1c murine hepatoma cells; cited from earlier work
[4] = tested on: NQO1 and glutathione S-transferases; settings: mice, 9.2 mg per kg of food in the diet; cited from earlier work
[5] = tested on: Keap1/Nrf2/ARE pathway; settings: topical daily 200 nmol, five days per week for four weeks, cited from earlier work

Q: With C#C[C@]12C=C(C#N)C(=O)C=C1[C@@]1(C)C=C(C#N)C(=O)C(C)(C)[C@@H]1CC2 (racemic) [TBE-31 (1), (±)-(4bS,8aR,10aS)-10a-ethynyl-4b,8,8-trimethyl-3,7-dioxo-3,4b,7,8,8a,9,10, 10a-octahydrophenanthrene-2,6-dicarbonitrile] as the molecule, how does the EC (2-fold NQO1 activity) [1] read?
A: 0.0009 µM

Q: What about the IC50 [2] of the same molecule?
A: 1 nM

Q: What about the “upregulation of NQO1” value [3] of the same molecule?
A: upregulates NAD(P)H: quinone oxidoreductase 1 (NQO1)

Q: What about the “induction of NQO1 and glutathione S-transferases in the stomach, skin, and liver” value [4] of the same molecule?
A: profoundly and dose-dependently induces

Q: And the “6-thioguanine incorporation into DNA of skin, blood, and liver” value ([5]; azathioprine-treated mice)?
A: decreases

Q: What about the “systemic induction of the Keap1/Nrf2/ARE pathway” value [5] of the same molecule?
A: robust systemic induction

Source: US10233146B2, “Acetylenic cyanoenones as therapeutics for inflammation and carcinogenesis” (THE RESEARCH FOUNDATION FOR THE STATE UNIVERSITY OF NEW YORK, priority 2015, dated 2019)
